The numbers were not newly measured in patent publication US7087611B2, “Preparation of an anhydrate form of 5-[2-[4-(1,2-benzisothiazol-3-yl)-1-piperazinyl]ethyl]-6-chloro-1,3-dihydro-2H-indol-2-one hydrochloride (ziprasidone hydrochloride)” (Apotex Pharmachem Inc., priority 2004, dated 2006), which cites them from elsewhere.

The conditions of series [1]: crystalline monohydrate form; background statement.
The conditions of series [2]: crystalline monohydrate form; as stated in U.S. Pat. No. 5,312,925.

Counter-ions that a name gives are not always drawn.

Regarding `O=C1Cc2cc(CCN3CCN(c4nsc5ccccc45)CC3)c(Cl)cc2N1` [ziprasidone hydrochloride monohydrate], in series [1], the aqueous solubility entry is listed as “very low”. For the same compound, the hygroscopic stability entry in series [2] is “substantially hygroscopically stable”.
